Results as given in patent US10760052B2, “Method of inhibiting tau phosphorylation” (priority 2012, dated 2020).

Legend:
[1] = system: insulin receptor (IR); experiment: Postmortem human frontal cortex: IR activation and signaling; format: cell-based; conditions: AD and Aβ42-treated control brain slices; 1 nM
Protocol: IR activation and signaling were initiated by incubation of approximately 10 mg of in vitro treated brain slices with either KR (basal) or KR containing 1 nM insulin at 37° C. for 30 minutes. […] Ligand stimulation was terminated by the addition of 1 ml of ice-cold Ca^2+-free K-R containing 0.5 mM EGTA and 0.1 mM EDTA. Brain slices were harvested by a brief centrifugation and were homogenized in 0.25 ml of ice-cold immunoprecipitation buffer. The homogenates were centrifuged at 1000×g for 5 minutes (4° C.) and the supernatant (post-mitochondrial fraction) is sonicated for 10 seconds on ice. […] The resultant lysates are then cleared by centrifugation at 50,000×g for 5 minutes and diluted with 0.75 ml of immunoprecipitation buffer. Protein concentrations are measured by Bradford method (Bio-Rad).
The blots were stripped and re-probed with anti-IRβ to assess the loading as appropriate.

[2] = system: α7nAChR (Aβ42-α7nAChR interaction); experiment: Aβ42 affinity for α7nAChR in SK-N-MC cells; format: binding, human
From the text: Data are means±SEM. n=11 for postmortem control tissue; n=6 for SK-N-MC cells.

[3] = system: NFT and Aβ42 aggregates; experiment: Immunohistochemistry of NFT and Aβ42 aggregates in slice cultures; format: cell-based, rat; conditions: slice cultures incubated with Aβ42
Protocol: For immunohistochemistry, additional slices were removed and fixed in 4% paraformaldehyde in PBS at 4° C.
One section was immunostained with anti-NFT or -PHF.
Specimens were examined using a Nikon FXA microscope with a Princeton Instruments CCD camera and recorded digitally.
The correlations between the amount of NFT/PHF immunoreactivity and Aβ42-positive material accumulated within mature neurons were also determined.

[4] = system: NMDAR; experiment: ICV Aβ42 infusion mouse model: NMDAR signaling molecules; format: in vivo; conditions: 10 mg/kg twice daily
Protocol: NMDAR signaling and their interaction with synaptic anchoring protein, PSD-95 were compared in synaptosomes from treated mice. NMDAR activation and signaling was initiated by incubation of 6 slices with either 0.3 mM Mg^2+ containing KR (LMKR; basal) or LMKR containing 10 μM NMDA and 1 μM glycine at 37° C. for 30 minutes.
Ligand stimulation was terminated by the addition of 1 ml of ice-cold Ca^2+-free K-R containing mixture of protein phosphatase inhibitors, 0.5 mM EGTA and 0.1 mM EDTA. After harvesting, tissues were briefly centrifuged and homogenized in 0.25 ml of ice-cold immunoprecipitation buffer. The homogenates were centrifuged at 1000×g for 5 minutes (4° C.) and the supernatant (post-mitochondrial fraction) was sonicated for 10 seconds on ice.
(§1) The resultant lysates were cleared by centrifugation at 50,000×g for 5 minutes and diluted with 0.75 ml of immunoprecipitation buffer. Protein concentrations were measured by Bradford method (Bio-Rad).
To determine the NMDARs association with PSD-95 as well as NMDAR signaling, the levels of NMDAR subunits, PSD-95 and NMDAR-associated signaling molecules were measured in anti-NR1 immunoprecipitates. In these studies, brain tissue lysates (100 μg) were immunoprecipitated overnight (about 18 hours) at 4° C. with 2 μg of immobilized anti-NR1 onto covalently conjugated protein A-agarose beads (Pierce-ENDOGEN). […]

[5] = system: voltage-gated calcium channel-mediated Ca2+ influx; format: cell-based, human; conditions: postmortem AD tissue; 1 nM
[6] = system: FLNA-α7nAChR association; experiment: FLNA association with α7nAChR in organotypic frontocortical slice cultures; format: cell-based, rat; conditions: 100 nM Aβ42, 16 hours, compound added simultaneously
Protocol: Tissue was harvested and solubilized, and a specific antibody against FLNA was used to immunoprecipitate FLNA and associated proteins. The FLNA immunoprecipitate was size-fractionated using SDS-PAGE, transferred and probed with specific antibodies directed against each of the following receptors: α7nAChR, TLR4, IR and MOR.
Rat brain slice organotypic culture methods were modified from those published previously. [Adamchik et al., Brain Res Brain Res Protoc 5:153-158 (2000).] FCX slices ([…]) were transferred to sterile, porous Millicell-CM inserts (0.4 μm). Each culture insert unit contained two brain slices and was placed into individual wells of a 12-well culture tray in 2 ml medium: 50% MEM with Earl's salts, 2 mM L-glutamine, 25% Earl's balanced salt solution, 6.5 g/l D-glucose, 20% fetal bovine serum (FBS), 5% horse serum, 25 mM HEPES buffer, pH 7.2, and […]. […]
The level of FLNA-associated α7nAChRs was determined using a co-immunoprecipitation/Western blotting method as described previously. […] The levels of FLNA-associated α7nAChR, TLR4, IR and MOR were assessed by Western blotting using specific antibodies directed against the respective proteins and the blot stripped and re-probed for FLNA for immunoprecipitation/loading control.

[7] = system: NMDAR; format: cell-based, human; conditions: AD and Aβ42-treated control brain slices
[8] = system: tau (pSer202, pThr231, pThr181); experiment: ICV Aβ42 infusion mouse model: tau phosphorylation; format: in vivo; conditions: 10 mg/kg twice daily
Protocol: The levels of phosphorylated tau (pSer202tau, pThr231tau and pThr181tau) as well as total tau precipitated (loading controls) were assessed by Western blotting using specific antibodies directed against each of the phosphoepitopes and the anti-tau, respectively.

[9] = system: tau (pSer202, pThr231, pThr181); experiment: Tau phosphorylation in organotypic frontocortical slice cultures; format: cell-based, rat; conditions: C0105 0.1, 1, 10 nM; C0114 1, 10 nM; simultaneous with Aβ42
Protocol: On the day of study, medium was removed, the brain slices rinsed and incubated in 0.1% FBS-containing medium for 4 hours at 36° C. in 5% CO2.
The levels of phosphorylated tau (pSer202tau, pThr231tau and pThr181tau) as well as total tau precipitated (loading controls) are assessed by Western blotting using specific antibodies directed against each of the phosphoepitopes and the anti-tau, respectively.

[10] = target: T1, α7nAChR-FLNA complex (Mus musculus, UniProt Q8BTM8); experiment: ICV Aβ42 infusion mouse model: FLNA association with α7nAChR; format: in vivo; conditions: 10 mg/kg twice daily; prefrontal cortex and hippocampus
T1 construct: from tissue; host or cells: synaptosomes from prefrontal cortex and hippocampus of treated E129 mice
T1 sequence (Q8BTM8 2-2647, one chain of several): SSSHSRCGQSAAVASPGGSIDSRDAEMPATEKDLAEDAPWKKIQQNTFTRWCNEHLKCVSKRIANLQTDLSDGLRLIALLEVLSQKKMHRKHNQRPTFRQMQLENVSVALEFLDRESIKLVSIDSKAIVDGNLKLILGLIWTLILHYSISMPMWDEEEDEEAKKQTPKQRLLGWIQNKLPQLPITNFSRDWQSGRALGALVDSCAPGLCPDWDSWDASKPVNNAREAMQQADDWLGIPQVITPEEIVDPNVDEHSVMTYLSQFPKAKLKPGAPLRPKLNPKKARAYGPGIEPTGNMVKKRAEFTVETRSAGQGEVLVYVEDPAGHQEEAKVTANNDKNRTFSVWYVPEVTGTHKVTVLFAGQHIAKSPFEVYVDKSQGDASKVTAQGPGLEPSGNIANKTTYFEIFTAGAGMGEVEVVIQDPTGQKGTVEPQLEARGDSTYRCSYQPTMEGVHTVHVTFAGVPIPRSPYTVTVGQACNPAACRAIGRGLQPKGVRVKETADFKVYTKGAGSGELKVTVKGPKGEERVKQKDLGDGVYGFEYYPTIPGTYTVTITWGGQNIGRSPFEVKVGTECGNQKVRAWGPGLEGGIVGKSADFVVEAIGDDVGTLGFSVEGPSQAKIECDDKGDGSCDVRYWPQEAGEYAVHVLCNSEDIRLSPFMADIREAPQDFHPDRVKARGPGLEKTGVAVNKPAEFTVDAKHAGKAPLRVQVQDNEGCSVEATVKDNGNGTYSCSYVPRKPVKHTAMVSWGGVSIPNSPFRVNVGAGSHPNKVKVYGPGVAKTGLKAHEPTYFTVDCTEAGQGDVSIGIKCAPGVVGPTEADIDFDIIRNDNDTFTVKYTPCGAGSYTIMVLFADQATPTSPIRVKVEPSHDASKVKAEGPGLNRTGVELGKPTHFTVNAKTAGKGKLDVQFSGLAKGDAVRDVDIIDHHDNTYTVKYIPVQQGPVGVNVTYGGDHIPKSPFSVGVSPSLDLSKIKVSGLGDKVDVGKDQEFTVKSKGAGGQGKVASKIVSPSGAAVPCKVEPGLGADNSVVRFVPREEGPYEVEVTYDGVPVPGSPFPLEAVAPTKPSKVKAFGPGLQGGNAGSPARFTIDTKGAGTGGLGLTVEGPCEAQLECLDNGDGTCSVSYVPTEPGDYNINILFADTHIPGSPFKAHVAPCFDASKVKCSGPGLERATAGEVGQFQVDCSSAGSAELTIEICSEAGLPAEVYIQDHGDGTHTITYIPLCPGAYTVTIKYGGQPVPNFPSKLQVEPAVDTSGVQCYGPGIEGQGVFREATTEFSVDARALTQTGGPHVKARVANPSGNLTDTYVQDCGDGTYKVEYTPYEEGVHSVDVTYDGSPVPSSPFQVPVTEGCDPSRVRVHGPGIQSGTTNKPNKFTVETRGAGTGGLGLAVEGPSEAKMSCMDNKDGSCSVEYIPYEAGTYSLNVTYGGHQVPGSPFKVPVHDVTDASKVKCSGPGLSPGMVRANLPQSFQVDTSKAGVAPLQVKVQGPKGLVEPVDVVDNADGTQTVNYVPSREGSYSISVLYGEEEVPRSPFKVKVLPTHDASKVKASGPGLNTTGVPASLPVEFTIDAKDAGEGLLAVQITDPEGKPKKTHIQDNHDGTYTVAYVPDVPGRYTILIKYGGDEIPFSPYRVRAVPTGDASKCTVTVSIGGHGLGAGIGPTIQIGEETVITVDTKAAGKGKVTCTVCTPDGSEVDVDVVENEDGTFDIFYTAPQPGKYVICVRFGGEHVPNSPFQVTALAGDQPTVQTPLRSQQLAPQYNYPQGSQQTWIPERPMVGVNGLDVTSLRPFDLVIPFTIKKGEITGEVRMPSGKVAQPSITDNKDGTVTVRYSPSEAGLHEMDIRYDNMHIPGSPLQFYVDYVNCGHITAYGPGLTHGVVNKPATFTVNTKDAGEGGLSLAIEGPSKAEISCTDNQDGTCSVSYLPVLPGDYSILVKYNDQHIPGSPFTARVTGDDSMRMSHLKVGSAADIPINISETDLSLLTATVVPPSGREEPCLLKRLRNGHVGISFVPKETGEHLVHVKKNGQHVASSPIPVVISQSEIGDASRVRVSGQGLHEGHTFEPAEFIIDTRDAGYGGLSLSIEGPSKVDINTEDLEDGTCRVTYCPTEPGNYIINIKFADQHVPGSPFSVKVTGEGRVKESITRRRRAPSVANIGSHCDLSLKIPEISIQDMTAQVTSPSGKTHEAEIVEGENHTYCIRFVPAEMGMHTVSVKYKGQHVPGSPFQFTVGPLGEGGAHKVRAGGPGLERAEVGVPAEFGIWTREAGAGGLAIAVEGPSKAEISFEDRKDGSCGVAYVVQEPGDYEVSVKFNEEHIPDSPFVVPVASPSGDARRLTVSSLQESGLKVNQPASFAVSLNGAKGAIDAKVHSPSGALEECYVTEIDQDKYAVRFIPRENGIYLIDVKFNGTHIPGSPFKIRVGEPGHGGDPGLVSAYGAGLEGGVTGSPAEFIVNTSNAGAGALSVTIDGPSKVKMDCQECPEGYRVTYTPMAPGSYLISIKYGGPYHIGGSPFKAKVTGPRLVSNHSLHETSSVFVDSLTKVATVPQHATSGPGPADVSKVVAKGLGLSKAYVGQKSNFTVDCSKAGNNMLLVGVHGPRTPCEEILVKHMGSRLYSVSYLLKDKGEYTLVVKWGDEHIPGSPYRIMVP
Protocol: . The anti-FLNA immunocomplexes were obtained by centrifugation, washed and dissociated using antigen elution buffer. […] The levels of FLNA-associated α7nAChRs and TLR4s were assessed by Western blotting and the blot stripped and re-probed for FLNA for immunoprecipitation/loading control.

[11] = system: tau phosphorylated at S202, T231 and T181; experiment: Postmortem human frontal cortical synaptosomes: Aβ42-induced tau phosphorylation with VAKGL decoy; format: cell-based; conditions: postmortem control frontocortical tissue
Protocol: FIG. 34 VAKGL (SEQ ID NO: 1) pentapeptide (10 μM) blocks Compound C0105's prevention of tau phosphorylation. Again using postmortem frontal cortical synaptosomes, the VAKGL pentapeptide blocks C0105's reduction in tau phosphorylation at all three phosphorylation sites found in neurofibrillary tangles. Western blots (FIG. 34A), in which numerals outside of and to the left of the blots are as discussed before, were analyzed by densitometric quantitation (FIG. 34B). Data are means±SEM. n=3. *p<0.01 vs. the respective basal level; # p<0.01 vs. Aβ42-exposed tissues.
In postmortem control frontocortical tissue, the FLNA pentapeptide binding site of Compound C0105 (VAKGL of SEQ ID NO: 1) was used as a decoy to block the attenuation of FLNA association with α7nAChR and TLR4 by Compound C0105 (FIG. 33).

[12] = system: NMDAR; experiment: Levels of signaling molecules associated with NMDAR (NR1) in slice cultures; format: cell-based, rat; conditions: 0.1 μM Aβ42
Protocol: NMDAR activation and signaling was initiated by incubation of 6 slices with either 0.3 mM Mg^2+ containing KR (LMKR; basal) or LMKR containing 10 μM NMDA and 1 μM glycine at 37° C. for 30 minutes.
Ligand stimulation was terminated by the addition of 1 ml of ice-cold Ca^2+-free K-R containing mixture of protein phosphatase inhibitors, 0.5 mM EGTA and 0.1 mM EDTA. Brain slices were harvested by a brief centrifugation and were homogenized in 0.25 ml of ice-cold immunoprecipitation buffer. The homogenates were centrifuged at 1000×g for 5 minutes (4° C.) and the supernatant (post-mitochondrial fraction) was sonicated for 10 seconds on ice.
as §1
To determine the association of NMDARs with PSD-95, as well as NMDAR signaling, the levels of NMDAR subunits, PSD-95 and NMDAR-associated signaling molecules were measured in anti-NR1 immunoprecipitates. In these studies, brain slice lysates (100 μg) were immunoprecipitated overnight at 4° C. with 2 μg of immobilized anti-NR1 onto covalently conjugated protein A-agarose beads (Pierce-ENDOGEN). […]

[13] = system: α7nAChR; conditions: mouse, in vivo
[14] = system: tau (pSerine202, pThreonine231, pThreonine181); experiment: LPS-induced tau phosphorylation in postmortem human hippocampal slices; format: cell-based; conditions: 1 nM compound, 1 hour
Protocol: The three phosphoepitopes of tau were detected in immunoprecipitates using specific antibodies using Western blots (WB).
The slices are carefully separated in 10 ml of oxygenated ice-cold dissection medium with two pairs of fine forceps and gentle shaking.
The reaction was terminated by diluting with 1.5 ml of ice-cold 1 mM EDTA-containing Ca^2+-free Kreb's-Ringer and centrifuged for 10 minutes at 15,000×g (4° C.).
After removal of the supernatant, the slices were homogenized to prepare post-mitochondrial (P2) fraction.
The anti-tau immunocomplexes were enriched by incubation with 50 μl of protein A/G-conjugated agarose beads at 4° C. and centrifugation.

CN1CCC2(CC1)NCC(=O)N2Cc1ccccc1 [Compound C0105]
IR signaling assemblies [1]: Normalization of receptor function | Reduction of Aβ42 binding affinity for α7nAChR ([2]; fresh SK-N-MC cells, n=6): 10,000 fold | Kd ([2]; read-out: Aβ42 binding affinity for α7nAChR with Compound C0105, SK-N-MC cells): 1 nM | Aβ42 aggregates immunostaining [3]: dramatically reduces | NFT immunostaining (pTau) [3]: dramatically reduces | Levels of NMDAR signaling molecules co-immunoprecipitating with NR-1 [4]: normalized | Deficit in depolarization-induced calcium influx [5]: attenuated the deficit | Aβ42-induced increase in FLNA-α7nAChR association [6]: reduced the Aβ42-induced increase in FLNA-α7nAChR association at 0.1, 1 and 10 nM | Functioning of NMDAR (calcium influx after receptor stimulation) [7]: preserves functioning | Tau phosphorylation at three sites [8]: suppressed tau phosphorylation at all three phosphorylation sites | Aβ42-induced tau phosphorylation [9]: reduced tau phosphorylation at all three phosphorylation sites | Aβ42-induced increase in FLNA association with α7nAChR [10]: reduced Aβ42-induced increases in FLNA associations with both α7nAChR and TLR4 | Aβ42-induced tau phosphorylation [11]: inhibits tau phosphorylation | Levels of six signaling molecules associated with NR1 after NMDA and glycine [12]: fully restored function | Aβ42-induced reduction in calcium influx after PNU282987 [13]: normalized | LPS-induced tau phosphorylation [14]: reduces LPS-induced tau phosphorylation
